Where two headings read alike, the source gives them in different places. Where no end group is shown, it is not given here.
Legend:
Experiment in all cases: Direct-binding FRET assay
[1] = biological target: T1, ATF2 (Homo sapiens, UniProt P15336); conditions: read-out: Kd
T1 construct: made in house
T1 sequence (P15336 352-415 limits assumed): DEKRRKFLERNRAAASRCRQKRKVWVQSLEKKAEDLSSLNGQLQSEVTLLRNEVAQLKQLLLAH
Experimental: (§1) The direct binding assay was performed manually in 384-well plates and is similar to a previously described assay. Wells were filled with 20 μL of 1 mM TCEP-HCl. A 4 μM stock of acceptor protein was made fresh in 1 mM TCEP-HCl, and 20 μL was titrated in 2-fold dilutions over the wells. […] The direct-binding FRET data were fit as previously described. Briefly, the Kd of the designed peptide homodimer was experimentally determined and used with previously determined target homodimer Kd values to determine the heterodimer Kd. The homodimer Kd values used for the human bZIPs were from; experiments done by […] et al. used the same protein constructs for the human bZIP proteins, the same buffer conditions, and the same assay. The fitting used a system of ordinary differential equations to describe the concentrations of homo and heterodimers formed by the donor (D) and acceptor (A) as a function of the heterodimer Kd. MATLAB was used to simulate the binding experiment for different Kd values, and the value that gave the best agreement between simulation and experiment was assigned. A minimum 15% change in the donor fluorescence upon titrating the acceptor peptide from 0 to 1000 nM was required for a fit to be attempted. If this minimum was not met, the interaction was classified as “NS” for no signal change. […] These interactions were marked “AS” to indicate anomalous signal. We attributed this to interactions between the peptides, the dyes and the walls of the assay plates at low concentrations. These curves could not be fit, given their unusual shapes at low concentrations of acceptor. For such curves, we removed the first five points and re-fit the data. […] One example of this is increasing concentrations of acceptor causing an increase in donor fluorescence.

[2] = biological target: T2, ATF5 (Homo sapiens, UniProt Q9Y2D1); conditions: mean or single, read-out: Kd
T2 construct: made in house
T2 sequence (Q9Y2D1 208-271 limits assumed): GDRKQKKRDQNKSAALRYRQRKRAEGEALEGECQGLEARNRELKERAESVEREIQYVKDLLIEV
Experimental: as §1

[3] = biological target: T3, BATF (Homo sapiens, UniProt Q16520); conditions: read-out: Kd
T3 construct: made in house
T3 sequence (Q16520 26-89 limits assumed): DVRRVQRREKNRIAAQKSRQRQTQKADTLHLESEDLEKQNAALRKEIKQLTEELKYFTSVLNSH
Experimental: as §1

[4] = biological target: T4, BATF2 (Homo sapiens, UniProt Q8N1L9); conditions: mean or single, read-out: Kd
T4 construct: made in house
T4 sequence (Q8N1L9 17-80 limits assumed): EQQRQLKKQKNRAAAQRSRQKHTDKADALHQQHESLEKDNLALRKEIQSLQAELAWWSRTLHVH
Experimental: as §1

[5] = biological target: T5, BATF3 (Homo sapiens, UniProt Q9NR55); conditions: mean or single, read-out: Kd
T5 construct: made in house
T5 sequence (Q9NR55 35-98 limits assumed): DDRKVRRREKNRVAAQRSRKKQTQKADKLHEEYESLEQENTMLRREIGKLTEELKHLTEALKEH
Experimental: as §1

[6] = biological target: T6, CREB3L1 (Homo sapiens, UniProt Q96BA8); conditions: read-out: Kd
T6 construct: made in house
T6 sequence (Q96BA8 290-353 limits assumed): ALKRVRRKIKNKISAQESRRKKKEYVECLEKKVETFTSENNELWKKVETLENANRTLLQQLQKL
Experimental: as §1

[7] = biological target: T7, CREB3L3 (Homo sapiens, UniProt Q68CJ9); conditions: mean or single, read-out: Kd
T7 construct: made in house
T7 sequence (Q68CJ9 243-306 limits assumed): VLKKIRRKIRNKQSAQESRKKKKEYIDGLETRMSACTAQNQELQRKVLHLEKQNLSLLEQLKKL
Experimental: as §1

[8] = biological target: T8, CREBZF (Homo sapiens, UniProt Q9NS37); conditions: read-out: Kd
T8 construct: made in house
T8 sequence (Q9NS37 204-267 limits assumed): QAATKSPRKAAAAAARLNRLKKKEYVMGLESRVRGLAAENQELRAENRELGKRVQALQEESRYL
Experimental: as §1

[9] = biological target: T9, FOSL1 (Homo sapiens, UniProt P15407); conditions: mean or single, read-out: Kd
T9 construct: made in house
T9 sequence (P15407 105-168 limits assumed): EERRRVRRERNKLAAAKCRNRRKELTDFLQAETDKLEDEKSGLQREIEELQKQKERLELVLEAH
Experimental: as §1

[10] = biological target: T10, HLF (Homo sapiens, UniProt Q16534); conditions: read-out: Kd
T10 construct: made in house
T10 sequence (Q16534 225-288 limits assumed): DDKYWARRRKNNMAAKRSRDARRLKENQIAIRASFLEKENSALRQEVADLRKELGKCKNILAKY
Experimental: as §1

[11] = 4°C, C-terminal fluorescein design as donor, TAMRA target titrated
[12] = 4°C, C-terminal rhodamine design, mean or single
[13] = 4°C, N-terminal rhodamine design, mean or single
[14] = 23°C, C-terminal fluorescein design as donor, TAMRA target titrated
[15] = 23°C, C-terminal rhodamine design, mean or single
[16] = 23°C, N-terminal rhodamine design, mean or single
[17] = 37°C, C-terminal fluorescein design as donor, TAMRA target titrated
[18] = 37°C, C-terminal rhodamine design, mean or single
[19] = 37°C, N-terminal rhodamine design, mean or single
[20] = 4°C, C-terminal rhodamine design
[21] = 4°C, N-terminal rhodamine design
[22] = 23°C, C-terminal rhodamine design
[23] = 23°C, N-terminal rhodamine design
[24] = 37°C, C-terminal rhodamine design
[25] = 37°C, N-terminal rhodamine design

**Q.** With “EREAQLENRVAHLKEKNQELKAQNLHLKEALSEAQNRNQELKNDA [XBP1-d1]” as the sequence, how does the Kd [1, 11] read?
**A.** Its Kd is > 1 µM.

**Q.** And the Kd [1, 12]?
**A.** Its Kd is > 1 µM.

**Q.** What about the Kd [1, 13] of the same sequence?
**A.** Its Kd is > 1 µM.

**Q.** What about the Kd [1, 14] of the same sequence?
**A.** Its Kd is > 1 µM.

**Q.** And the Kd [1, 15]?
**A.** The Kd was > 1 µM.

**Q.** What about the Kd [1, 16] of the same sequence?
**A.** Its Kd is > 1 µM.

**Q.** And the Kd [1, 17]?
**A.** The Kd was > 1 µM.

**Q.** What about the Kd [1, 18] of the same sequence?
**A.** The Kd was > 1 µM.

**Q.** And the Kd [1, 19]?
**A.** Its Kd is > 1 µM.

**Q.** What about the Kd [2, 20] of the same sequence?
**A.** Its Kd is > 1 µM.

**Q.** And the Kd [2, 21]?
**A.** Its Kd is > 1 µM.

**Q.** What about the Kd [2, 22] of the same sequence?
**A.** Its Kd is > 1 µM.

**Q.** What about the Kd [2, 23] of the same sequence?
**A.** The Kd was > 1 µM.

**Q.** What about the Kd [2, 24] of the same sequence?
**A.** Its Kd is > 1 µM.

**Q.** What about the Kd [2, 25] of the same sequence?
**A.** The Kd was > 1 µM.

**Q.** What about the Kd [3, 11] of the same sequence?
**A.** Its Kd is > 5 µM.

**Q.** What about the Kd [3, 12] of the same sequence?
**A.** Its Kd is > 5 µM.

**Q.** What about the Kd [3, 13] of the same sequence?
**A.** Its Kd is > 1 µM.

**Q.** What about the Kd [3, 14] of the same sequence?
**A.** The Kd was > 1 µM.

**Q.** And the Kd [3, 15]?
**A.** Its Kd is > 1 µM.

**Q.** What about the Kd [3, 16] of the same sequence?
**A.** Its Kd is > 1 µM.

**Q.** What about the Kd [3, 17] of the same sequence?
**A.** Its Kd is > 1 µM.

**Q.** What about the Kd [3, 18] of the same sequence?
**A.** Its Kd is > 1 µM.

**Q.** What about the Kd [3, 19] of the same sequence?
**A.** The Kd was > 1 µM.

**Q.** What about the Kd [4, 20] of the same sequence?
**A.** Its Kd is < 0.2 µM.

**Q.** And the Kd [4, 21]?
**A.** The Kd was > 1 µM.

**Q.** What about the Kd [4, 22] of the same sequence?
**A.** Its Kd is > 1 µM.

**Q.** And the Kd [4, 23]?
**A.** Its Kd is > 1 µM.

**Q.** What about the Kd [4, 24] of the same sequence?
**A.** The Kd was > 1 µM.

**Q.** And the Kd [4, 25]?
**A.** The Kd was > 1 µM.

**Q.** And the Kd [5, 20]?
**A.** Its Kd is > 5 µM.

**Q.** And the Kd [5, 21]?
**A.** Its Kd is > 1 µM.

**Q.** What about the Kd [5, 22] of the same sequence?
**A.** Its Kd is > 1 µM.

**Q.** What about the Kd [5, 23] of the same sequence?
**A.** The Kd was > 1 µM.

**Q.** And the Kd [5, 24]?
**A.** Its Kd is > 1 µM.

**Q.** And the Kd [5, 25]?
**A.** Its Kd is > 1 µM.

**Q.** What about the Kd [6, 11] of the same sequence?
**A.** The Kd was > 1 µM.

**Q.** What about the Kd [6, 12] of the same sequence?
**A.** The Kd was > 1 µM.

**Q.** What about the Kd [6, 13] of the same sequence?
**A.** Its Kd is > 1 µM.

**Q.** What about the Kd [6, 14] of the same sequence?
**A.** Its Kd is > 1 µM.

**Q.** And the Kd [6, 15]?
**A.** Its Kd is > 1 µM.

**Q.** What about the Kd [6, 16] of the same sequence?
**A.** The Kd was > 1 µM.

**Q.** And the Kd [6, 17]?
**A.** Its Kd is > 1 µM.

**Q.** And the Kd [6, 18]?
**A.** The Kd was > 1 µM.

**Q.** And the Kd [6, 19]?
**A.** The Kd was > 1 µM.

**Q.** What about the Kd [7, 20] of the same sequence?
**A.** Its Kd is > 1 µM.

**Q.** What about the Kd [7, 21] of the same sequence?
**A.** Its Kd is > 1 µM.

**Q.** What about the Kd [7, 22] of the same sequence?
**A.** The Kd was > 1 µM.

**Q.** And the Kd [7, 23]?
**A.** The Kd was > 1 µM.

**Q.** What about the Kd [7, 24] of the same sequence?
**A.** The Kd was > 1 µM.

**Q.** And the Kd [7, 25]?
**A.** The Kd was > 1 µM.

**Q.** And the Kd [8, 11]?
**A.** Its Kd is > 1 µM.

**Q.** What about the Kd [8, 13] of the same sequence?
**A.** Its Kd is > 1 µM.

**Q.** What about the Kd [8, 14] of the same sequence?
**A.** The Kd was > 1 µM.

**Q.** And the Kd [8, 16]?
**A.** Its Kd is > 1 µM.

**Q.** And the Kd [8, 17]?
**A.** Its Kd is > 1 µM.

**Q.** And the Kd [8, 18]?
**A.** The Kd was > 1 µM.

**Q.** And the Kd ([8]; 37°C, C-terminal rhodamine design, repeat 1)?
**A.** The Kd was > 1 µM.

**Q.** And the Kd ([8]; 37°C, C-terminal rhodamine design, repeat 2)?
**A.** The Kd was > 1 µM.

**Q.** And the Kd ([8]; 37°C, C-terminal rhodamine design, repeat 3)?
**A.** Its Kd is > 1 µM.

**Q.** And the Kd [8, 19]?
**A.** Its Kd is > 1 µM.

**Q.** And the Kd [9, 20]?
**A.** The Kd was > 1 µM.

**Q.** And the Kd [9, 21]?
**A.** The Kd was > 1 µM.

**Q.** And the Kd [9, 22]?
**A.** The Kd was > 1 µM.

**Q.** What about the Kd [9, 23] of the same sequence?
**A.** Its Kd is > 1 µM.

**Q.** What about the Kd [9, 24] of the same sequence?
**A.** The Kd was > 1 µM.

**Q.** What about the Kd [9, 25] of the same sequence?
**A.** Its Kd is > 1 µM.

**Q.** What about the Kd [10, 11] of the same sequence?
**A.** Its Kd is > 1 µM.

**Q.** What about the Kd [10, 12] of the same sequence?
**A.** Its Kd is > 1 µM.

**Q.** And the Kd [10, 13]?
**A.** The Kd was > 1 µM.

**Q.** And the Kd [10, 14]?
**A.** Its Kd is > 1 µM.

**Q.** And the Kd [10, 15]?
**A.** Its Kd is > 1 µM.

**Q.** And the Kd [10, 16]?
**A.** Its Kd is > 1 µM.

**Q.** And the Kd [10, 17]?
**A.** The Kd was > 1 µM.

**Q.** What about the Kd [10, 18] of the same sequence?
**A.** The Kd was > 1 µM.

**Q.** And the Kd [10, 19]?
**A.** The Kd was > 1 µM.

— paper PMC4335062, “Data-Driven Prediction and Design of bZIP Coiled-Coil Interactions” (PLoS Computational Biology, 2015)
